# Experimental data taken from patent US20240294572A1, “Antimicrobial Peptides” (priority 2021, published 2024).
# Residues, ends and D or L forms follow the SMILES beside them. *: point of attachment. Decanoyl = CCCCCCCCCC(=O)*
# Legend:
# Test in all cases: Mass spectrometry of mouse plasma proteins bound to bead-immobilized peptide
# Assay type in all cases: binding
# Details in all cases: intensity bound to L-form / D-form of C10-KR8
# [1] = molecular target: T1, Apolipoprotein E (P08226) (Mus musculus, UniProt P08226)
# T1 construct: incubated with 5% mouse plasma; from tissue; host or cells: mouse plasma (5%)
# T1 sequence (P08226 19-311): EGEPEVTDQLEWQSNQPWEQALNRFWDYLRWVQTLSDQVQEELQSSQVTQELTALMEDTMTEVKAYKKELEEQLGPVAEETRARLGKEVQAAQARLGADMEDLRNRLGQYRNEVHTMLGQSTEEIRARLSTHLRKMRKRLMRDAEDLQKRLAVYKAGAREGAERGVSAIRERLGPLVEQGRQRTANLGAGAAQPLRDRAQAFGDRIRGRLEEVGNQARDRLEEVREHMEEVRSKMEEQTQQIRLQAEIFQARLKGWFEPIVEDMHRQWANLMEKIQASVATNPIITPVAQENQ
# Method: (§1) Dynabeads M-370 amine (2×10^9 beads/mL, 50 μL; Thermo Fisher Scientific) were washed 3 times in sterile PBS (1 mL; GIBCO) and reacted with a bifunctional SM(PEG)4 cross-linker (5 mg/mL in DMSO) containing N-hydroxysuccinimide (NHS) ester and maleimide functional groups. A stable covalent bond between the amino group of beads and the NHS ester of the cross-linker was formed in PBS at pH 7.2 at room temperature for 24 hours with shaking at 80 rpm. The beads were then washed six times with PBS to remove nonreacted cross-linker. Next, peptide C10-KR8 (with a cysteine at the N-terminus) at 5 mg/mL was reacted with the free maleimide group in PBS for 24 hours at room temperature with shaking at 80 rpm. Another round of washing was conducted to remove the nonreacted peptides. Both the L-and D-forms of the peptide were coupled in the same manner. A portion of the beads without peptide coupling was saved as a control.
# (§2) For serum binding experiments, the beads were resuspended in 500 μL of PBS; 200-μL aliquots of the coated and control dynabead were incubated with 5% mouse plasma for 18 hours at 37° C. After binding, the beads were washed six times with PBS to remove unbound proteins. Finally, the beads were suspended in 50 μL of PBS for mass spectrophotometric analysis to identify peptide-binding partners.
# (§3) The samples were reduced by 10 mM dithiothreitol (DTT) and incubated for 30 minutes at 56° C. and back to room temperature. A final concentration of 50 mM iodoacetamide was added to alkylate free cysteines followed by further incubation for 20 min in the dark. Bound proteins were enzymatically digested by trypsin (4 μL of 0.5 μg/mL) overnight. A 60 […] portion was transferred to a new Eppendorf® tube and dried for 2 hours. The samples were then dissolved in 20 μL of 2% acetonitrile with 0.1% formic acid before being loaded to Q-tip columns (Pepclean, C18 spin column). Column was activated by pipetting in and out (4× times), 10 μL of 70% acetonitrile with 0.1% formic acid, and equilibrating with the same volume of 2% acetonitrile with 0.1% formic acid. Binding of the samples was done by mixing more than 10 × times, followed by washing in the same buffer (2% acetonitrile with 0.1% formic acid). The bound peptides were then eluted with 20 μL of 70% acetonitrile with 0.1% formic acid. Samples were subjected to LC-MS analysis after being suspended in the desired buffer.
# (§4) Extracted peptides were resuspended in 2% acetonitrile (ACN) and 0.1% formic acid (FA) and loaded onto trap column Acclaim™ PepMap™ 100 75 μm×2 cm C18 LC Columns (Thermo Scientific) at a flow rate of 4 μL/minute. These were then separated with a Thermo RSLC UltiMate™ 3000 on a Thermo Easy-Spray PepMap™ M RSLC C18 75 μm×50 cm C-18 2 μm column (Thermo Scientific) with a step gradient of 4-25% solvent B (0.1% FA in 80% ACN) from 10 to 37 minutes and 25-45% solvent B for 37-46 minutes at 300 nL/min and 50° C. with a 70 minute total run time. Eluted peptides were analyzed by a Thermo Orbitrap Fusion™ Lumos™ Tribrid™ (Thermo Scientific) mass spectrometer in a data dependent acquisition mode. A survey full scan MS (from m/z 350-1800) was acquired in the orbitrap with a resolution of 120000. The AGC target for MS1 was set as 4×10^5 and the ion filling time set as 100 ms. The most intense ions with charge state 2-6 were isolated in 3 second cycle and fragmented using HCD fragmentation with 40% normalized collision energy and detected at a mass resolution of 30000 at 200 m/z. The AGC target for MS/MS was set as 5×10^4 and ion filling time set 60 ms dynamic exclusion was set for 30 seconds with a 10 ppm mass window. Protein identification was performed by searching MS/MS data against the Swiss-Prot mouse protein database. The search was set up for full tryptic peptides with a maximum of two missed cleavage sites. Acetylation of protein N-terminus and oxidized methionine were included as variable modifications, and carbamidomethylation of cysteine was set as fixed modification. […]
# [2] = molecular target: T2, Apolipoprotein A-I (Q00623) (Mus musculus, UniProt Q00623)
# T2 construct: incubated with 5% mouse plasma; from tissue; host or cells: mouse plasma (5%)
# T2 sequence (Q00623 19-264): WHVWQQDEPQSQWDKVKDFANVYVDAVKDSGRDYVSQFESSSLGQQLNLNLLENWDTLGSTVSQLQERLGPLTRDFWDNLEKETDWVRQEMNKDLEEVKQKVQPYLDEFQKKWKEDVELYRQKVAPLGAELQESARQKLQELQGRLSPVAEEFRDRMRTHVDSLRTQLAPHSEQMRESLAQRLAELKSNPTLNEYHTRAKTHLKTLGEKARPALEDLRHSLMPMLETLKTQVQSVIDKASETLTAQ
# Method: as §1, §2, §3, §4
# [3] = molecular target: T3, Apolipoprotein C-III (P33622) (Mus musculus, UniProt P33622)
# T3 construct: incubated with 5% mouse plasma; from tissue; host or cells: mouse plasma (5%)
# T3 sequence (P33622 21-99): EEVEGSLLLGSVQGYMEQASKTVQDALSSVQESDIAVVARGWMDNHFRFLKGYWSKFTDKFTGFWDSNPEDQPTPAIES
# Method: as §1, §2, §3, §4
# [4] = molecular target: T4, Serum albumin (P07724) (Mus musculus, UniProt P07724)
# T4 construct: incubated with 5% mouse plasma; from tissue; host or cells: mouse plasma (5%)
# T4 sequence (P07724 25-608): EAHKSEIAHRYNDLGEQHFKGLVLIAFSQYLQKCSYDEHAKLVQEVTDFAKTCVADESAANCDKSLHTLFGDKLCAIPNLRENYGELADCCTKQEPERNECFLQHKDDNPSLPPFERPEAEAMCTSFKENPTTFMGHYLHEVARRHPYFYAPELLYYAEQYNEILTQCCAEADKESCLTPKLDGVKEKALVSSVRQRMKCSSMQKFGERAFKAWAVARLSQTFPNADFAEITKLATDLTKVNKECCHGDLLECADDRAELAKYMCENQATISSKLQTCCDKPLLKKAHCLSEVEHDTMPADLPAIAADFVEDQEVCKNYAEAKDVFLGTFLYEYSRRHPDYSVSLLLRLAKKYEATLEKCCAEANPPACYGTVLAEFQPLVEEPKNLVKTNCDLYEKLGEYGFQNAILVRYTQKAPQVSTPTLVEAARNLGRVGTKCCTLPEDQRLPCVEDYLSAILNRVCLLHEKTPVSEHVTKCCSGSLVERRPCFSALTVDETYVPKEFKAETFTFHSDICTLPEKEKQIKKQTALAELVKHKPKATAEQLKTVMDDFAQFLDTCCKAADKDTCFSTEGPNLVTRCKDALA
# Method: as §1, §2, §3, §4
# [5] = molecular target: T5, Apolipoprotein A-IV (P06728) (Mus musculus, UniProt P06728)
# T5 construct: incubated with 5% mouse plasma; from tissue; host or cells: mouse plasma (5%)
# T5 sequence (P06728 21-395): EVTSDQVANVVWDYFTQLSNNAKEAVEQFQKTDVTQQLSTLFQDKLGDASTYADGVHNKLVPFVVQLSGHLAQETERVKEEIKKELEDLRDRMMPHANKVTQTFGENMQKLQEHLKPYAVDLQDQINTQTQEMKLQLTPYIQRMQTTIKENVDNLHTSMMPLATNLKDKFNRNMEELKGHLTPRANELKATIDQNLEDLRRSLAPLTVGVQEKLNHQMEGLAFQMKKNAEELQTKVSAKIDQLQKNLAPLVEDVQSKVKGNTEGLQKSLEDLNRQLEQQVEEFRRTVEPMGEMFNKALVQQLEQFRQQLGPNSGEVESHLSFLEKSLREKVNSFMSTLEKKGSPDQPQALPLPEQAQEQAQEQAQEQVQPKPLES
# Method: as §1, §2, §3, §4
smiles,measurement,setting,value
CCCCCCCCCC(=O)N[C@@H](CCCCN)C(=O)N[C@@H](CCCNC(=N)N)C(=O)N[C@H](C(=O)N[C@@H](Cc1c[nH]c2ccccc12)C(=O)N[C@@H](CCC(N)=O)C(=O)N[C@@H](CCCNC(=N)N)C(=O)N[C@H](C(=O)N[C@@H](CCCCN)C(N)=O)[C@@H](C)CC)[C@@H](C)CC [Peptide C10-KR8] (Decanoyl-KRIWQRIK-NH2),"L/D Ratio, Apolipoprotein E",[1],0.811
same,"L/D Ratio, Apolipoprotein A-I",[2],3.54
same,"L/D Ratio, Apolipoprotein C-III",[3],3.62
same,"L/D Ratio, Serum albumin",[4],2.28
same,"L/D Ratio, Apolipoprotein A-IV",[5],2.89
